In brackets after ≈: the same amount, converted by molar mass. Read-outs that look alike come from different tables or passages of the source.
Assays:
[1] = tested on: Staphylococcus aureus No. 50774; assay: In vivo efficacy against systemic infection; design: species or system male mice (ddY); conditions: NO.50774, in Mus musculus, 336 h, sc, twice, about 5 minutes and 6 hours after infection, read-out: ED50 (median effective dose)
Description: (§1) The contents in the vials (No. A and No. C) prepared in Example 17 were each dissolved in deionized water, and injections having various concentrations were prepared.
Compounds A, B, F, G, H and M were dissolved in deionized water. Compounds C, D, E and J were dissolved in an aqueous solution of sodium carbonate (pH 8-9) to prepare injections of various concentrations.
Each of the injections was administered to mice under the conditions described below, and the median effective doses (ED50) obtained are shown in Table II.
(§2) Mice: male mice (ddY) weighting about 20g
Staphylococcus aureus No. 50774;
Intravenous infection with 50 to 100
LD50 (about 5 × 10^8cells/mouse) of a
bacterial suspension in saline.
(§3) twice, about 5 minutes and 6 hours after
Staphylococcus aureus No. 50774 14 days
The numerals in the table show ED50 (mg/kg). ED50 values were
(§4) calculated in accordance with the Behrens-Kaerber method [Arch. Exp. Path

[2] = tested on: Staphylococcus aureus No. 50774; assay: In vitro antibacterial activity (MIC); assay type: cell-based
From the text: (§5) In vitro antibacterial activity against 20 strains of bacteria
(§6) The numerals in the table show minimum inhibitory concentrations (MIC)

[3] = tested on: Proteus morganii Kono; assay: In vitro antibacterial activity (MIC); assay type: cell-based; conditions: Morganella morganii, read-out: minimum inhibitory concentration (MIC)
From the text: as §5, §6

[4] = tested on: Serratia mercescens IFO 3736; assay: In vitro antibacterial activity (MIC); assay type: cell-based; conditions: Serratia, IFO3736, read-out: minimum inhibitory concentration (MIC)
From the text: as §5, §6

[5] = tested on: Enterobacter cloacae P-2540; assay: In vitro antibacterial activity (MIC); assay type: cell-based
From the text: as §5, §6

[6] = tested on: Shigella flexneri 4a P-330; assay: In vitro antibacterial activity (MIC); assay type: cell-based; conditions: 4AP330, read-out: minimum inhibitory concentration (MIC)
From the text: as §5, §6

[7] = tested on: Staphylococcus aureus 209P JC-1; assay: In vitro antibacterial activity (MIC); assay type: cell-based; conditions: Staphylococcus aureus 209P JC-1; read-out: minimum inhibitory concentration (MIC)
From the text: as §5, §6

[8] = tested on: Pseudomonas aeruginosa No.12; assay: In vitro antibacterial activity (MIC); assay type: cell-based
From the text: as §5, §6

[9] = tested on: Proteus rettgeri P-2503; assay: In vitro antibacterial activity (MIC); assay type: cell-based; conditions: Providencia rettgeri
From the text: as §5, §6

[10] = tested on: Streptococcus faecalis P-2473; assay: In vitro antibacterial activity (MIC); assay type: cell-based; conditions: Enterococcus faecalis, P2473, read-out: minimum inhibitory concentration (MIC)
From the text: as §5, §6

[11] = tested on: Shigella flexneri 2a; assay: In vitro antibacterial activity (MIC); assay type: cell-based; conditions: read-out: minimum inhibitory concentration (MIC)
From the text: as §5, §6

[12] = tested on: Salmonella typhimurium S-9; assay: In vitro antibacterial activity (MIC); assay type: cell-based; conditions: Salmonella enterica, read-out: minimum inhibitory concentration (MIC)
From the text: as §5, §6

[13] = tested on: Pseudomonas aeruginosa Tsuchijima; assay: In vitro antibacterial activity (MIC); assay type: cell-based; conditions: Pseudomonas aeruginosa Tsuchijima; read-out: minimum inhibitory concentration (MIC)
From the text: as §5, §6

[14] = tested on: Streptococcus pyogenes 65A; assay: In vitro antibacterial activity (MIC); assay type: cell-based; conditions: Streptococcus pyogenes 65A; read-out: minimum inhibitory concentration (MIC)
From the text: as §5, §6

[15] = tested on: Salmonella enteritidis No. 1891; assay: In vitro antibacterial activity (MIC); assay type: cell-based; conditions: Salmonella enterica, read-out: minimum inhibitory concentration (MIC)
From the text: as §5, §6

[16] = tested on: Escherichia coli P-5101; assay: In vitro antibacterial activity (MIC); assay type: cell-based
From the text: as §5, §6

[17] = tested on: Klebsiella pneumoniae No. 13; assay: In vitro antibacterial activity (MIC); assay type: cell-based
From the text: as §5, §6

[18] = tested on: Corynebacterium pyogenes C-21; assay: In vitro antibacterial activity (MIC); assay type: cell-based; conditions: Rhodococcus (subgen. Prescottella) equi, C21; Corynebacterium pyogenes C-21; read-out: minimum inhibitory concentration (MIC)
From the text: as §5, §6

[19] = tested on: Escherichia coli NIHJ JC-2; assay: In vitro antibacterial activity (MIC); assay type: cell-based; conditions: Escherichia coli, NIHJJC2, read-out: minimum inhibitory concentration (MIC)
From the text: as §5, §6

[20] = tested on: Proteus mirabilis P-2381; assay: In vitro antibacterial activity (MIC); assay type: cell-based; conditions: Proteus mirabilis, P2381, read-out: minimum inhibitory concentration (MIC)
From the text: as §5, §6

[21] = tested on: Escherichia coli P-140a; assay: In vitro antibacterial activity (MIC); assay type: cell-based
From the text: as §5, §6

[22] = tested on: 20 strains of bacteria; assay: In vitro antibacterial activity, overall conclusions; assay type: cell-based; conditions: against Gram-positive bacteria
From the text: as §5

[23] = tested on: Pseudomonas aeruginosa No. 12; assay: In vivo efficacy against systemic infection; design: species or system male mice (ddY); conditions: NO.12, in Mus musculus, twice, about 5 minutes and 6 hours after infection, read-out: ED50 (median effective dose)
Description: as §1
(§7) Compounds A, B, F, G, H and M were dissolved in deionized water.
as §2
Pseudomonas aeruginosa No. 12;
(§8) Intraperitoneal infection with 50 to
(§9) of a bacterial suspension in tryptosoy
as §3
Pseudomonas aeruginosa No. 12
as §4

[24] = tested on: Escherichia coli P-5101; assay: In vivo efficacy against systemic infection; design: species or system male mice (ddY); conditions: P5101, in Mus musculus, 168 h, twice, about 5 minutes and 6 hours after infection, read-out: ED50 (median effective dose)
Description: as §1, §7, §2, §8, §9, §3, §4

[25] = in vivo; conditions: mouse, sc

SMILES: CCn1cc(C(=O)O)c(=O)c2cnc(N3CCNCC3)nc21 [Compound J, 5,8-Dihydro-8-ethyl-2-(1-piperazinyl)-5-oxopyrido[2,3-d]pyrimidine-6-carboxylic acid]
- ED50 [1]: > 50 mg/kg
- MIC ([2]; Staphylococcus aureus, NO.50774, read-out: minimum inhibitory concentration (MIC)): 25 µg/mL (≈ 82.4 µM)
- MIC [3]: 3.13 µg/mL (≈ 10.3 µM)
- MIC [4]: 6.25 µg/mL (≈ 20.6 µM)
- MIC ([5]; Enterobacter cloacae, P2540, read-out: minimum inhibitory concentration (MIC)): 1.56 µg/mL (≈ 5.14 µM)
- MIC [6]: 1.56 µg/mL (≈ 5.14 µM)
- MIC [7]: 12.5 µg/mL (≈ 41.2 µM)
- MIC ([8]; Pseudomonas aeruginosa No.12, read-out: minimum inhibitory concentration (MIC)): 25 µg/mL (≈ 82.4 µM)
- MIC ([9]; P2503, Proteus rettgeri P-2503, read-out: minimum inhibitory concentration (MIC)): 6.25 µg/mL (≈ 20.6 µM)
- MIC [10]: > 200 µg/mL
- MIC [11]: 3.13 µg/mL (≈ 10.3 µM)
- MIC ([12]; TYPHIMURIUM): 3.13 µg/mL (≈ 10.3 µM)
- MIC [13]: 12.5 µg/mL (≈ 41.2 µM)
- MIC [14]: > 100 µg/mL
- MIC ([15]; ENTERITIDIS): 1.56 µg/mL (≈ 5.14 µM)
- MIC ([16]; Escherichia coli, P5101, read-out: minimum inhibitory concentration (MIC)): 3.13 µg/mL (≈ 10.3 µM)
- MIC ([17]; Klebsiella pneumoniae No. 13, read-out: minimum inhibitory concentration (MIC)): 6.25 µg/mL (≈ 20.6 µM)
- MIC [18]: 25 µg/mL (≈ 82.4 µM)
- MIC [19]: 1.56 µg/mL (≈ 5.14 µM)
- MIC [20]: 3.13 µg/mL (≈ 10.3 µM)
- MIC ([21]; Escherichia coli, read-out: minimum inhibitory concentration (MIC)): 3.13 µg/mL (≈ 10.3 µM)
- antibacterial activity (in words) [22]: inferior antibacterial activity against Gram-positive bacteria
- antibacterial activity (in words) ([22]; listed as Pipemidic acid): does not show any marked antibacterial activity against Gram-positive bacteria
- ED50 ([23]; iv): 42.7 mg/kg
- ED50 ([23]; sc): 37.7 mg/kg
- ED50 ([24]; iv): 4.6 mg/kg
- ED50 ([24]; sc): 6.3 mg/kg

SMILES: CN(C)c1ncc2c(=O)c(C(=O)N[C@@H](C(=O)N[C@@H]3C(=O)N4[C@@H]3SC(C)(C)[C@@H]4C(=O)O)c3ccc(O)cc3)c[nH]c2n1 [Compound E, D-α-(5,8-Dihydro-2-dimethylamino-5-oxopyrido[2,3-d]pyrimidine-6-carboxamido)-p-hydroxybenzylpenicillin]
- ED50 [1]: ~10 mg/kg
- MIC ([2]; Staphylococcus aureus No. 50774, read-out: minimum inhibitory concentration (MIC)): 0.78 µg/mL (≈ 1.34 µM)
- MIC [3]: 6.25 µg/mL (≈ 10.7 µM)
- MIC [4]: 6.25 µg/mL (≈ 10.7 µM)
- MIC ([5]; P2540, Enterobacter cloacae P-2540, read-out: minimum inhibitory concentration (MIC)): 12.5 µg/mL (≈ 21.5 µM)
- MIC [6]: 6.25 µg/mL (≈ 10.7 µM)
- MIC [7]: 0.78 µg/mL (≈ 1.34 µM)
- MIC ([8]; Pseudomonas aeruginosa, NO.12, read-out: minimum inhibitory concentration (MIC)): 3.13 µg/mL (≈ 5.38 µM)
- MIC ([9]; P2503, read-out: minimum inhibitory concentration (MIC)): 6.25 µg/mL (≈ 10.7 µM)
- MIC [10]: 3.13 µg/mL (≈ 5.38 µM)
- MIC ([12]; Salmonella typhimurium S-9): 1.56 µg/mL (≈ 2.68 µM)
- MIC [13]: 1.56 µg/mL (≈ 2.68 µM)
- MIC [14]: 0.025 µg/mL (≈ 0.043 µM)
- MIC ([15]; Salmonella enteritidis No. 1891): 0.78 µg/mL (≈ 1.34 µM)
- MIC ([16]; P5101, Escherichia coli P-5101, read-out: minimum inhibitory concentration (MIC)): 1.56 µg/mL (≈ 2.68 µM)
- MIC ([17]; Klebsiella pneumoniae, NO.13, read-out: minimum inhibitory concentration (MIC)): 12.5 µg/mL (≈ 21.5 µM)
- MIC [18]: 0.78 µg/mL (≈ 1.34 µM)
- MIC [19]: 6.25 µg/mL (≈ 10.7 µM)
- MIC [20]: 3.13 µg/mL (≈ 5.38 µM)
- minimum inhibitory concentration (MIC) [21]: 25 µg/mL (≈ 43 µM)
- ED50 ([23]; sc): 32.4 mg/kg
- LD50 at 168 h [25]: 1070 mg/kg
- selectivity ratio [25]: 33
- ED50 ([24]; sc): 11 mg/kg

From US4103011A, “Novel penicillin compounds and process for preparation thereof” (priority 1976, dated 1978)
